“Also recorded” adds a separate entry of the source.
Legend:
[1] = target: T1, MHC class II I-A^b molecules (Mus musculus, UniProt P14434+P14483); assay: I-A^b affinity assay (competitive binding against a radiolabeled high-affinity peptide); settings: purified I-A^b; for peptide binding affinity for I-A^b: unlabeled peptide vs radiolabeled high-affinity competitor peptide
T1 construct: made in house
T1 sequence (P14434 24-256): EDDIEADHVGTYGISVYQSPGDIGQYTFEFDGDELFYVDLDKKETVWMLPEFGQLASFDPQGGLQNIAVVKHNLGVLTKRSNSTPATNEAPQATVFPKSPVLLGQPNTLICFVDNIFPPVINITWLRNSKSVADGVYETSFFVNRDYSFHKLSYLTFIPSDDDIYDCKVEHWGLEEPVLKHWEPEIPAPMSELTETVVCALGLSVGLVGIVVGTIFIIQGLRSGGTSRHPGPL
T1 sequence (P14483 28-265): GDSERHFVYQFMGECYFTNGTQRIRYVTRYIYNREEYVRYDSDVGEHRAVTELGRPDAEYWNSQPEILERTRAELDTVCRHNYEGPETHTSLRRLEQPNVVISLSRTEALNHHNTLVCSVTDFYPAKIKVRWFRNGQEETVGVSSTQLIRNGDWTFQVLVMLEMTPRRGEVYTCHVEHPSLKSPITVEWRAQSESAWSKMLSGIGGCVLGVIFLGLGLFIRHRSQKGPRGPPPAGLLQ
Description: (§1) FIGS. 2A-2F. Pathogenic AQP4 determinants bind I-A^b with high affinity and elicit proliferation of AQP4: I-A^b-specific TCR-bearing T cells in AQP4-deficient mice. (FIG. 2A) WT or AQP4^−/− mice were immunized s.c. with peptides indicated. Peptide-specific proliferation of draining lymph node cells was measured by 3H-thymidine incorporation (mean±SEM, representative of five experiments). (FIG. 2B) Lymph node cells from AQP4 immunized WT or AQP4^−/− mice were cultured for 3 days with cognate antigen under Th17 polarizing conditions. AQP4 p133-149- and p202-218-specific Th17 cells from AQP4/donors induce paralysis in WT recipient mice. (FIG. 2C) IEDB, an in silico method for predicting determinants within proteins that bind MHC alleles, was used to identify AQP4 amino acid sequences anticipated to bind I-A^b for recognition by AQP4-specific/I-A^b-restricted CD4^+ T cells. 1/IC50 is plotted against the first amino acid for each overlapping AQP4 15 mer. Peaks correspond to increased predicted binding affinity. (FIG. 2D) Purified I-A^b molecules were tested biochemically for peptide binding affinity using a competitive binding assay between a radiolabeled high-affinity competitor peptide and unlabeled peptides (22). Lower IC50 values indicate higher binding affinity. Boxed amino acids designate the core binding regions. (FIGS. 2E-2F) Lymph node T cells isolated from WT or AQP4−/− mice immunized with AQP4 p133-149 or p202-218 were stained with I-A^b:p133-149 and […] tetramers, bead-enriched and analyzed by flow cytometry. […] Each data point represents one mouse. ****p<0.0001 (Mann Whitney U test).
Both AQP4 p133-149 and p202-218 are predicted to bind MHC II (I-A^b) with high affinity according to the Immune Epitope Database (IEDB) (FIG. 2C), an in silico method for predicting determinants within proteins that bind allele-specific MHC molecules for presentation to T cells (21). We have now examined AQP4 peptide affinity for I-A^b biochemically. I-A^b molecules that were purified by affinity chromatography were tested in a competitive binding assay between a radiolabeled high-affinity competitor peptide and unlabeled peptides (22). Indeed, peptides containing the two pathogenic AQP4 T cell determinants bound I-A^b with higher affinity than the nonpathogenic AQP4 p24-35 T cell epitope or MOG p35-55 (FIG. 2D).
I-A^b affinity Assay. Purification of MHC class II I-A^b molecules by affinity chromatography, and the performance of assays based on the inhibition of binding of a high affinity radiolabeled peptide to quantitatively measure peptide binding, were performed as described (22). Lower IC50 values indicate higher binding affinity. Excellent binders have affinities less than 100 nM and good binders have affinities less than 1000 nM.

[2] = test system: draining lymph node cells; assay: Proliferation assay, ^3H-thymidine incorporation after s.c. peptide immunization; type: cell-based, mouse
Description: as §1
FIGS. 4A-4B. Negative selection of AQP4 p133-149-reactive T cells is bypassed partially in mice deficient in thymic AQP4 expression. (FIG. 4A) AQP4^−/− WT, Foxn1cre-AQP4^fl/fl, Aire^−/−, or Foxn1cre-Fezf2^fl/fl mice were immunized s.c. with peptides indicated. Peptide-specific proliferation of draining lymph node cells was measured by 3H-thymidine incorporation (mean±SEM, representative of five experiments). Comparisons within the five experiments for p133-149 at […]: WT vs. AQP4^−/− (p=0.008), WT vs. Foxn1cre-AQP4^fl/fl (p=0.008). (FIG. 4B) Ten days after peptide immunization, CD4^+ T cells from draining lymph nodes were analyzed for I-A^b: peptide tetramer binding by flow cytometry. Each data point represents the frequency (mean±SEM) of CD4^+ T cells bound to cognate antigen-tetramer in a single mouse. […] For p133-149: WT vs. Aire^−/− (p=0.9), WT vs. Foxn1cre-Fezf2^fl/fl (p=0.3). For p202-218: WT vs. Foxn1cre-AQP4^fl/fl (p=0.3), WT vs. Aire^−/− (p=0.06).
Proliferation assays. Mice were immunized subcutaneously (s.c.) with 100 μg of AQP4, MOG or IRBP peptide in CFA containing 400 μg M. tuberculosis H37Ra (Difco Laboratories). Lymph nodes were harvested on day 10-12 and cultured at 2×10^5/well with various concentrations of peptide in triplicate wells for 72 hours. […] of ^3H-thymidine was added 18 hours prior to cell harvest, and data are presented as counts per minute (CPM). Stimulation Index (SI) was calculated by dividing CPM in wells with Ag by CPM in wells with no antigen controls of each assay test group.

[3] = AQP4^−/− mice immunized with the peptide
[4] = Aire^−/− mice immunized with the peptide
[5] = Foxn1cre-AQP4^fl/fl mice immunized with the peptide
[6] = WT mice immunized with the peptide

Row | Sequence | peptide binding affinity for I-A^b [1] | peptide-specific proliferation of draining lymph node cells [2, 3] | peptide-specific proliferation of draining lymph node cells ([2]; AQP4^−/− mice immunized with the peptide, listed as p133-149) | peptide-specific proliferation of draining lymph node cells [2, 4] | peptide-specific proliferation of draining lymph node cells [2, 5] | peptide-specific proliferation of draining lymph node cells ([2]; Foxn1cre-Fezf2^fl/fl mice immunized with the peptide) | peptide-specific proliferation of draining lymph node cells [2, 6] | I-A^b binding affinity relative to MOG p35-55 ([1]; competitive binding assay) | peptide binding affinity for I-A^b ([1]; listed as p202-218)
1 | LYLVTPPSVVGGLGVT [AQP4 p133-149] | bound I-A^b avidly | robust proliferative T cell responses | robust proliferative responses | little or no proliferation | induced proliferation in Foxn1cre-AQP4^fl/fl mice, but not to the same level as in AQP4^−/− mice | little or no proliferation | little or no proliferation | – | –
2 | LFAINYTGASMNPARSF [AQP4 p202-218] | highest affinity among peptides examined in this report | robust proliferative responses; also recorded: strong proliferation | – | no significant responses | only marginal responses | – | no significant responses | more than ten times greater affinity than MOG p35-55 | bound I-A^b avidly

Reference: patent publication US20250052751A1, “COMPOSITIONS AND METHODS FOR DIAGNOSING AUTOIMMUNE AQUAPORINOPATHY” (The Regents of the University of California, priority 2023, published 2025)
